Results taken from patent US20230090708A1, “METHODS AND COMPOSITIONS FOR THE TREATMENT OF HEMANGIOMA” (MASSEY VENTURES LIMITED, priority 2020, published 2023).
Values after ≈ are worked out from the molar mass of the structure shown. “Also recorded” adds a separate entry of the source. Like-named read-outs stand apart in the source and are kept apart here.

What was measured:
[1] = test system: proliferating infantile haemangioma cells; test: Example 2: single 100 μM dose on primary haemangioma cell line, MTT; type: cell-based, human; details: for inhibitory effect on haemangioma cell proliferation: 24, 48, 72 hours
Procedure: (§1) An in vitro cell culture model of infantile hemangioma was developed to assess the impact of renin-angiotensin system inhibitors on cellular proliferation. A primary cell line of proliferating infantile hemangioma cells, including haemangioma stem cells, was derived from a tissue biopsy obtained from patients during the proliferating phase of the disease. The primary cell lines are cultured in 25 cm^2 flasks using standard culture media and conditions. The cultured cells are used to seed 96-well plates with a seed cell concentration of 2500 or 5000 cells per well, with additional culture media (200 μL). All studies are performed in triplicate. The plates are incubated overnight to allow cell adherence to the wells. The wells are photographed to confirm cell adherence and confluency. The appropriate drug(s) to be examined are subsequently added to the wells. After 24 hours, one set of plates (experimental and blank) is stopped. The media is aspirated from each well and stored frozen for possible future analyses. Media is added to the wells and an MTT determination is undertaken according to standard protocols. This is repeated at 48 and 72 hours. From the triplicate incubations of each drug concentration at each time, as well as for all controls, the mean±standard deviation is calculated. The net survival (optical density value) is calculated by subtracting the appropriate blank mean value from each cell culture. From the MTT data, the percentage of survival of cells in the presence of each concentration of drug after each time of culturing is determined. […] This model recapitulates the process of locally administering the drug directly to the hemangioma microenvironment, which is representative of diffusing the drug through skin to reach the target cells.

[2] = test system: proliferating infantile hemangioma cells derived from multiple patients (n=5); test: Example 4: single agents and combinations on five patient-derived cell lines, MTT; type: cell-based, human; details: for Individual Responders at 72 Hours with ≥30% Inhibition vs. Cells + Adjuvant: responders/cell lines; for Results Summary: 72 hours, n=5 cell lines; for Estimated Optimal Dosage Range in vitro / inhibition of all five patient-derived haemangioma cell lines: single agent
Procedure: as §1, with “The experimental protocol was performed as per Example 1. Briefly, cells were seeded in 96-well plates at a concentration” for “This model recapitulates the process”, “2500 cells/well in triplicate for each” for “locally administering the”, “and drug combination. Drug(s) were added” for “directly”, “each well 24 hours after seeding and re-dosed every 24 hours. Cell viability was assessed by MTT assay after 24, 48, and 72 hours. All plates were performed in triplicate. Drugs were assessed alone and in combination as described in Table 3.” for “the hemangioma microenvironment, which is representative of diffusing the drug through skin to reach the target cells.”

[3] = test system: proliferating hemangioma cells; test: Experiment 7: different ACEi and beta blockers on one primary cell line, MTT; type: cell-based, human; details: for Results Summary: 72 hours, one cell line; for inhibition at 1 µM / inhibition at 10 µM: Homo sapiens, 72 h, read-out: Inhibition vs. Cells + Adjuvant at 72 Hours
Procedure: (§2) An in vitro cell culture model of infantile hemangioma was developed to assess the impact of renin-angiotensin system inhibitors on cellular proliferation. A primary cell line of proliferating infantile hemangioma cells, including haemangioma stem cells, was derived from a tissue biopsy obtained from patients during the proliferating phase of the disease. The primary cell lines are cultured in 25 cm^2 flasks using standard culture media and conditions. The cultured cells are used to seed 96-well plates with a seed cell concentration of 2500 or 5000 cells per well, with additional culture media (200 μL). All studies are performed in triplicate.
The plates are incubated overnight to allow cell adherence to the wells. The wells are photographed to confirm cell adherence and confluency. The appropriate drug(s) to be examined are subsequently added to the wells. […] The media is aspirated from each well and stored frozen for possible future analyses. Media is added to the wells and an MTT determination is undertaken according to standard protocols.
(§3) From the triplicate incubations of each drug concentration at each time, as well as for all controls, the mean±standard deviation is calculated. The net survival (optical density value) is calculated by subtracting the appropriate blank mean value from each cell culture. From the MTT data, the percentage of survival of cells in the presence of each concentration of drug after each time of culturing is determined.
Briefly, cells were seeded in 96-well plates at concentrations of 2500 cells/well in triplicate for each drug and drug combination. […] All plates were performed in triplicate. Beta blockers used in the study were (±)-propranolol, R-propranolol, S-propranolol, timolol, and betaxalol.

[4] = test system: proliferating IH; details: topical 0.5% solution or gel; cited from earlier work
[5] = test system: proliferating hemangioma cell lines (n=9); test: Example 6: single agents and combinations on nine primary cell lines, MTT, CompuSyn combination index; type: cell-based, human; details: 1 to 10 μM; 72 hours; n=9
Procedure: as §2
The plates are incubated overnight to allow cell adherence to the wells. The wells are photographed to confirm cell adherence and confluency. The appropriate drug(s) to be examined are subsequently added to the wells. After 24 hours, one set of plates (experimental and blank) is stopped. The media is aspirated from each well and stored frozen for possible future analyses. Media is added to the wells and an MTT determination is undertaken according to standard protocols. This is repeated at 48 and 72 hours.
as §3
A study was undertaken using combinations of ACE inhibitors, beta blockers and angiotensin II type 2 receptor blockers to inhibit proliferating hemangioma cells. […] Patient histories pertaining to each cell line is described in Table 5.
The experimental protocol was performed as per Example 1. Briefly, cells were seeded in 96-well plates at concentrations of 2500 cells/well in triplicate for each drug and drug combination. Drug(s) were added to each well 24 hours after seeding and re-dosed every 24 hours. Cell viability was assessed by MTT assay after 24, 48, and 72 hours. All plates were performed in triplicate. Drugs were assessed alone and in combination, as described in Table 6. Propranolol was used as a model beta blocker, cilazapril as a model ACE inhibitor, and SMM02 (L-159686) as a model AT2Ri. Synergy was measured using the CompuSyn open-source software protocol for quantifying synergism and antagonism that uses the median-effect equation and mass-action laws to generate a combination index (www.compusyn.com). Synergism, additive effects and antagonism are defined as a CI<1, CI=1, and CI>1, respectively.

[6] = target: ACE (Homo sapiens, UniProt P12821); details: enzyme source not given; cited from earlier work
[7] = cited from earlier work
[8] = cited from earlier work; remark: listed apart in the source
[9] = cited from earlier work; remark: listed apart in the source
[10] = in words; cited from earlier work

Chain of ACE (P12821 30-1306, species assumed): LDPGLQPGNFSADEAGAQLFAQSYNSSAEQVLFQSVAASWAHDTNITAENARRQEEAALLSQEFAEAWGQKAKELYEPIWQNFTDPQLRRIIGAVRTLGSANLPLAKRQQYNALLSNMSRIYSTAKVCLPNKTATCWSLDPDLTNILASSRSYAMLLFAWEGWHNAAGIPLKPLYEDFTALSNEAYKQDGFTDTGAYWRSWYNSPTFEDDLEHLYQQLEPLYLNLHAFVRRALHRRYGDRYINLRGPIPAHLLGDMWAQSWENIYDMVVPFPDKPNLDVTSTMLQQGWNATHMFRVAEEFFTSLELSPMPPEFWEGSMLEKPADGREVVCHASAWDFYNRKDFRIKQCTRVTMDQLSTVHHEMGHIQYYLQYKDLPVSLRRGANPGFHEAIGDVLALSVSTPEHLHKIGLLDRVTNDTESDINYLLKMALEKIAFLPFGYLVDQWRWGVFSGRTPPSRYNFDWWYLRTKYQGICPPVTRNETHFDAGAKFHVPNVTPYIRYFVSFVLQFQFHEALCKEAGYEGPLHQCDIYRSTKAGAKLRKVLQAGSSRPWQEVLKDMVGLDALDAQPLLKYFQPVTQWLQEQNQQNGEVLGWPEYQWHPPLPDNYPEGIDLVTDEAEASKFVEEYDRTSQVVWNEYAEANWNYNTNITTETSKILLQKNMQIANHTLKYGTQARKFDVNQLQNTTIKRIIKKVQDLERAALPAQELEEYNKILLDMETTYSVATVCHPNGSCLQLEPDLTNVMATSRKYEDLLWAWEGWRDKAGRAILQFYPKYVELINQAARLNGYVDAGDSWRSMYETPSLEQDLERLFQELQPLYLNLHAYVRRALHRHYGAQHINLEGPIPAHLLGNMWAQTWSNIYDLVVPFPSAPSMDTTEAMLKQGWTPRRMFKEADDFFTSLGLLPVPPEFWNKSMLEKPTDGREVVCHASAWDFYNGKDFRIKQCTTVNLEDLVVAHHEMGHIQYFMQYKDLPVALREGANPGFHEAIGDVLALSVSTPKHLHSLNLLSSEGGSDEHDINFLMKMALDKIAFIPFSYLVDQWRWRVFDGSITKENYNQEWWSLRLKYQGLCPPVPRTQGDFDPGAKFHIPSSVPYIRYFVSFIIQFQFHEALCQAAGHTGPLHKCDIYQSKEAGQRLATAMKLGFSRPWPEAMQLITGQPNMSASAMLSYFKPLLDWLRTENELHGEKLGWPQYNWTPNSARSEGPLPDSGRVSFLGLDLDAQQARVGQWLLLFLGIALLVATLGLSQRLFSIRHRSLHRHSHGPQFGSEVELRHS

Row | SMILES | inhibitory effect on haemangioma cell proliferation [1] | Individual Responders at 72 Hours with ≥30% Inhibition vs. Cells + Adjuvant ([2]; 1 μM) | Individual Responders at 72 Hours with ≥30% Inhibition vs. Cells + Adjuvant ([2]; 10 μM) | Results Summary [2] | Estimated Optimal Dosage Range in vitro [2] | inhibition of all five patient-derived haemangioma cell lines [2] | Results Summary [3] | inhibition at 1 µM [3] | inhibition at 10 µM [3] | clinical response [4] | increase in the inhibition of haemangioma cell proliferation compared to timolol ([1]; 24 hours) | dose-response across all cell lines [5] | inhibition of proliferating hemangioma cells ([3]; 1 μM and 10 μM) | IC50 [6] | Log P ([7]; Table 1) | log P [7] | pKa [8] | pKa ([8]; second value) | Solubility [9] | Half life: short or long acting [10]
1 | CC(C)(C)NC[C@H](O)COc1nsnc1N1CCOCC1 [Timolol] | little effect; also recorded: consistent | 1 μM - 0/5 | 10 μM - 4/5 | Responder | 1 to 10 µM | significantly inhibited | Responder | 11.1% | 57% | clinically beneficial response | – | – | – | – | – | – | – | – | – | –
2 | CCOC(=O)[C@H](CCc1ccccc1)N[C@H]1CCCN2CCC[C@@H](C(=O)O)N2C1=O [Cilazapril] | diminishes over time | 1 μM - 1/5 | 10 μM - 4/5 | Responder | 1 to 10 µM | significantly inhibited | Responder | 4.35% | 60.5% | – | 7 fold | typical dose-response | good and similar level of inhibition | 4 nM | 0.8 | 0.8 | 3.4 | 6.5 | 5 mg/mL (≈ 12 mM) | Long acting
